According to ChEMBL document CHEMBL1201862, “PubChem BioAssay data set” (2004):
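Results reflect a 48-hour exposure of cells in 96-well plates to compound at five concentrations. GI50 = concentration required for 50% inhibition of growth.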 Active and inactive are the calls of the source. Cut-off read from the data, not from the text of the source: active = GI50 up to about 1.1 µM and inactive = higher.

Experiments:
Assay in all cases: DTP human tumour cell line panel, 48 h
CCRF-CEM = test system: CCRF-CEM
IGROV-1 = test system: IGROV-1
A498 = test system: A498
LOX IMVI = test system: LOX IMVI
SNB-78 = test system: SNB-78
HCT-15 = test system: HCT-15
COLO 205 = test system: COLO 205
RPMI-8226 = test system: RPMI-8226
SF-539 = test system: SF-539
SNB-75 = test system: SNB-75
SK-MEL-2 = test system: SK-MEL-2
NCI-H522 = test system: NCI-H522
A549 = test system: A549
SF-268 = test system: SF-268
HCT-116 = test system: HCT-116
HCC 2998 = test system: HCC 2998
Malme-3M = test system: Malme-3M
SK-OV-3 = test system: SK-OV-3
SNB-19 = test system: SNB-19
KM-20L2 = test system: KM-20L2

SMILES: CCC/C=C/C=C\C(=O)O[C@@H]1[C@@H](C)[C@]2(O)[C@@H]3C=C(C)C(=O)[C@H]3CC(COC(C)=O)=C[C@H]2[C@@H]2C(C)(C)[C@]12OC(C)=O
- GI50 (CCRF-CEM): 3.56 µM (inactive)
- GI50 (IGROV-1): 48.4 µM (inactive)
- GI50 (A498): 1.99 µM (inactive)
- GI50 (LOX IMVI): 16.8 µM (inactive)
- GI50 (SNB-78): 44.9 µM (inactive)
- GI50 (HCT-15): 28.6 µM
- GI50 (COLO 205): 1.74 µM (inactive)
- GI50 (RPMI-8226): 22.9 µM (inactive)
- GI50 (SF-539): 41.4 µM (inactive)
- GI50 (SNB-75): 57.7 µM (inactive)
- GI50 (SK-MEL-2): 43.3 µM (inactive)
- GI50 (NCI-H522): 27.7 µM (inactive)
- GI50 (A549): 4.59 µM (inactive)
- GI50 (SF-268): 39.7 µM (inactive)
- GI50 (HCT-116): 20.4 µM (inactive)
- GI50 (HCC 2998): 14.8 µM (inactive)
- GI50 (Malme-3M): 33.2 µM (inactive)
- GI50 (SK-OV-3): 81.7 µM (inactive)
- GI50 (SNB-19): 54.1 µM (inactive)
- GI50 (KM-20L2): 44.4 µM (inactive)
